Source: patent publication US20230183193A1, “4-DIFLUOROMETHYL BENZOYL AMIDES WITH HERBICIDAL ACTION” (BAYER CROPSCIENCE AKTIENGESELLSCHAFT, priority 2017, published 2023)

Columns and labels:
Format in all cases: in vivo
[1] = system: Pharbitis purpureum; assay: Post-emergence herbicidal action, PHBPU; conditions: 80 g/ha, Table D
Procedure, shortened: (§1)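 Greenhouse-grown plants were sprayed at the one-leaf stage, 2–3 weeks after sowing. Damage was scored visually after about 3 weeks against untreated controls, as % action (100% = dead, 0% = like control).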

[2] = system: Setaria viridis; assay: Post-emergence herbicidal action, SETVI; conditions: 80 g/ha, Table C
Procedure, shortened: as §1

[3] = system: Abutilon theophrasti; assay: Pre-emergence herbicidal action, ABUTH; conditions: dosage 320 g/ha, scored visually after 3 weeks vs untreated controls
Procedure, shortened: (§2)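 Weed seeds were laid out in sandy loam and covered with soil, then the soil surface was treated with an aqueous suspension or emulsion of the formulated compound containing 0.2% wetting agent. Pots stayed in the greenhouse for 3 weeks before damage was rated visually against untreated plants.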

[4] = system: Avena fatua; assay: Pre-emergence herbicidal action, AVEFA; conditions: dosage 320 g/ha, scored visually after 3 weeks vs untreated controls
Procedure, shortened: as §2

[5] = system: Viola tricolor; assay: Pre-emergence herbicidal action, VIOTR; conditions: dosage 320 g/ha, scored visually after 3 weeks vs untreated controls
Procedure, shortened: as §2

[6] = system: Alopecurus myosuroides; assay: Pre-emergence herbicidal action, ALOMY; conditions: dosage 320 g/ha, scored visually after 3 weeks vs untreated controls
Procedure, shortened: as §2

[7] = system: Setaria viridis; assay: Pre-emergence herbicidal action, SETVI; conditions: dosage 320 g/ha, scored visually after 3 weeks vs untreated controls
Procedure, shortened: as §2

[8] = system: Avena fatua; assay: Post-emergence herbicidal action, AVEFA; conditions: 80 g/ha, Table C
Procedure, shortened: as §1

[9] = system: Abutilon theophrasti; assay: Post-emergence herbicidal action, ABUTH; conditions: 80 g/ha, Table D
Procedure, shortened: as §1

[10] = system: Cyperus serotinus; assay: Pre-emergence herbicidal action, CYPES; conditions: dosage 320 g/ha, scored visually after 3 weeks vs untreated controls
Procedure, shortened: as §2

[11] = system: ECHCG; assay: Post-emergence herbicidal action, ECHCG; conditions: 80 g/ha, Table C
Procedure, shortened: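 Weed and crop plants grown in sandy loam in the greenhouse, treated at the one-leaf stage 2–3 weeks after sowing. Damage scored visually after about 3 weeks vs untreated controls (0% = control, 100% = dead).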

[12] = system: Viola tricolor; assay: Post-emergence herbicidal action, VIOTR; conditions: 80 g/ha, Table D
Procedure, shortened: as §1

[13] = system: Alopecurus myosuroides; assay: Post-emergence herbicidal action, ALOMY; conditions: 80 g/ha, Table C
Procedure, shortened: as §1

[14] = system: Stellaria media; assay: Post-emergence herbicidal action, STEME; conditions: 80 g/ha, Table D
Procedure, shortened: as §1

[15] = system: Amaranthus retroflexus; assay: Post-emergence herbicidal action, AMARE; conditions: 80 g/ha, Table D
Procedure, shortened: as §1

[16] = system: Matricaria inodora; assay: Pre-emergence herbicidal action, MATIN; conditions: dosage 320 g/ha, scored visually after 3 weeks vs untreated controls
Procedure, shortened: as §2

[17] = system: Stellaria media; assay: Pre-emergence herbicidal action, STEME; conditions: dosage 320 g/ha, scored visually after 3 weeks vs untreated controls
Procedure, shortened: as §2

[18] = system: Amaranthus retroflexus; assay: Pre-emergence herbicidal action, AMARE; conditions: dosage 320 g/ha, scored visually after 3 weeks vs untreated controls
Procedure, shortened: as §2

| SMILES | Herbicidal activity PHBPU [1] [%] | herbicidal activity SETVI [2] [%] | herbicidal activity ABUTH [3] [%] | herbicidal activity AVEFA [4] [%] | herbicidal activity VIOTR [5] [%] | herbicidal activity ALOMY [6] [%] | herbicidal activity SETVI [7] [%] | herbicidal activity AVEFA [8] [%] | herbicidal activity ABUTH [9] [%] | herbicidal activity CYPES [10] [%] | Herbicidal activity ECHCG [11] [%] | herbicidal activity VIOTR [12] [%] | herbicidal activity ALOMY [13] [%] | Herbicidal activity STEME [14] [%] | herbicidal activity AMARE [15] [%] | herbicidal activity MATIN [16] [%] | Herbicidal activity STEME [17] [%] | herbicidal activity AMARE [18] [%] |
| --- | --- | --- | --- | --- | --- | --- | --- | --- | --- | --- | --- | --- | --- | --- | --- | --- | --- | --- |
| Cn1nnnc1NC(=O)c1ccc(C(F)F)c([S+](C)[O-])c1I (stereo not drawn) [Example 1-74] | 100 | 100 | 100 | 100 | 100 | 100 | 100 | 90 | 100 | 100 | 90 | 100 | 90 | 100 | 100 | 100 | 100 | 100 |
| CCn1nnnc1NC(=O)c1ccc(C(F)F)c(S(C)(=O)=O)c1C [Example 2-3] | 100 | 100 | 100 | 100 | 100 | 90 | 100 | 90 | 80 | 100 | 90 | 100 | 80 | 100 | 80 | 100 | 90 | 100 |
| CCn1nnnc1NC(=O)c1ccc(C(F)F)c([S+]([O-])CC)c1C (stereo not drawn) [Example 2-5] | 90 | 100 | 100 | 90 | 100 | 100 | 100 | 100 | 100 | 80 | 100 | 100 | 90 | 100 | 100 | 100 | 90 | 100 |
| CCn1nnnc1NC(=O)c1ccc(C(F)F)c(S(=O)(=O)CC)c1C [Example 2-6] | 100 | 90 | 100 | 100 | 100 | 100 | 100 | 100 | 100 | 100 | 90 | 100 | 80 | 100 | 90 | 100 | 100 | 100 |
| CCc1c(C(=O)Nc2nnnn2CC)ccc(C(F)F)c1SC [Example 2-13] | 100 | 100 | 100 | 100 | 100 | 100 | 100 | 90 | 100 | 100 | 90 | 100 | 80 | 100 | 100 | 100 | 100 | 100 |
| CCc1c(C(=O)Nc2nnnn2CC)ccc(C(F)F)c1S(C)(=O)=O [Example 2-15] | 80 | 100 | 100 | 100 | 100 | 100 | 100 | 100 | 100 | 100 | 90 | 100 | 80 | 100 | 100 | 100 | 100 | 100 |
| CCSc1c(C(F)F)ccc(C(=O)Nc2nnnn2CC)c1CC [Example 2-16] | 100 | 90 | 100 | 100 | 100 | 100 | 100 | 90 | 100 | 100 | 90 | 100 | 90 | 100 | 100 | 100 | 100 | 100 |
| CCc1c(C(=O)Nc2nnnn2CC)ccc(C(F)F)c1[S+]([O-])CC (stereo not drawn) [Example 2-17] | 100 | 90 | 100 | 100 | 100 | 100 | 100 | 100 | 100 | 100 | 90 | 100 | 90 | 100 | 100 | 100 | 100 | 100 |
| CCc1c(C(=O)Nc2nnnn2CC)ccc(C(F)F)c1S(=O)(=O)CC [Example 2-18] | 100 | 90 | 100 | 100 | 100 | 100 | 100 | 100 | 100 | 90 | 90 | 100 | 80 | 100 | 100 | 100 | 100 | 100 |
